In ChEMBL document CHEMBL1139192, “Novel bis(indolyl)maleimide pyridinophanes that are potent, selective inhibitors of glycogen synthase kinase-3” (Bioorg Med Chem Lett, 2007):

What was measured:
[1] = target: Tyrosine-protein kinase receptor UFO (Homo sapiens) (UniProt P30530); assay: Residual activity of human Axl at 1 uM relative to control
[2] = target: RAF proto-oncogene serine/threonine-protein kinase (Homo sapiens) (UniProt P04049); assay: Residual activity of humna c-RAF at 1 uM relative to control
[3] = target: Glycogen synthase kinase-3 beta (Homo sapiens, UniProt P49841); assay: Residual activity of human GSK3-beta at 1 uM relative to control
Homo sapiens = species: Homo sapiens; assay: Residual activity of human CDK3/Cyclin E at 1 uM relative to control
[4] = target: Tyrosine-protein kinase Lck (Homo sapiens) (UniProt P06239); assay: Inhibition of human Lck at 1 uM relative to control; values are per cent of control
[5] = target: T1, Dual specificity mitogen-activated protein kinase kinase 6 (Homo sapiens) (UniProt P52564); assay: Inhibition of human MKK6 at 1 uM relative to control; values are per cent of control
T1 sequence (whole entry): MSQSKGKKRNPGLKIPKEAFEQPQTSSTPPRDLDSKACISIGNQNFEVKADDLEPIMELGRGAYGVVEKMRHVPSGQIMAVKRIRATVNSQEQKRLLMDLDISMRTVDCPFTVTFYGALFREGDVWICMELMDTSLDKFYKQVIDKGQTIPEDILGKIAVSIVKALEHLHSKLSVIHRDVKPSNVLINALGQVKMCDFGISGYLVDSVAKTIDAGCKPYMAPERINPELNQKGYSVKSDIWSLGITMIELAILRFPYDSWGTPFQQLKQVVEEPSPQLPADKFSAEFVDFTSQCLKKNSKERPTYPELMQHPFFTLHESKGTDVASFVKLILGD

[6] = target: Ribosomal protein S6 kinase alpha-5 (Homo sapiens, UniProt O75582); assay: Inhibition of human MSK1 at 1 uM relative to control; values are per cent of control
[7] = target: T2, Serine/threonine-protein kinase Nek2 (Homo sapiens) (UniProt P51955); assay: Inhibition of human NEK2 at 1 uM relative to control; values are per cent of control
T2 sequence (whole entry): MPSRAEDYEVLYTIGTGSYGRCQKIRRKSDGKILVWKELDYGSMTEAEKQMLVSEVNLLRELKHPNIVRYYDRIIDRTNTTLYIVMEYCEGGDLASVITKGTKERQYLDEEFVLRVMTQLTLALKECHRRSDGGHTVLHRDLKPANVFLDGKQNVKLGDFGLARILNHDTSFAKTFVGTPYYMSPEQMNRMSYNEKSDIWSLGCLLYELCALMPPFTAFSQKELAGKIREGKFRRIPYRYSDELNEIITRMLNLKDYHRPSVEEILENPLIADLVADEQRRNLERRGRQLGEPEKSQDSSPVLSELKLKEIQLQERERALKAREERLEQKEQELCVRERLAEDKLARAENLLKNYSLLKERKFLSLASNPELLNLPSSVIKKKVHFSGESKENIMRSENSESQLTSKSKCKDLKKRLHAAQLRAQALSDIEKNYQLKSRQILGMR

[8] = target: T3, Ephrin type-B receptor 2 (Homo sapiens) (UniProt P29323); assay: Inhibition of human EphB2 at 1 uM relative to control; values are per cent of control
T3 sequence (whole entry): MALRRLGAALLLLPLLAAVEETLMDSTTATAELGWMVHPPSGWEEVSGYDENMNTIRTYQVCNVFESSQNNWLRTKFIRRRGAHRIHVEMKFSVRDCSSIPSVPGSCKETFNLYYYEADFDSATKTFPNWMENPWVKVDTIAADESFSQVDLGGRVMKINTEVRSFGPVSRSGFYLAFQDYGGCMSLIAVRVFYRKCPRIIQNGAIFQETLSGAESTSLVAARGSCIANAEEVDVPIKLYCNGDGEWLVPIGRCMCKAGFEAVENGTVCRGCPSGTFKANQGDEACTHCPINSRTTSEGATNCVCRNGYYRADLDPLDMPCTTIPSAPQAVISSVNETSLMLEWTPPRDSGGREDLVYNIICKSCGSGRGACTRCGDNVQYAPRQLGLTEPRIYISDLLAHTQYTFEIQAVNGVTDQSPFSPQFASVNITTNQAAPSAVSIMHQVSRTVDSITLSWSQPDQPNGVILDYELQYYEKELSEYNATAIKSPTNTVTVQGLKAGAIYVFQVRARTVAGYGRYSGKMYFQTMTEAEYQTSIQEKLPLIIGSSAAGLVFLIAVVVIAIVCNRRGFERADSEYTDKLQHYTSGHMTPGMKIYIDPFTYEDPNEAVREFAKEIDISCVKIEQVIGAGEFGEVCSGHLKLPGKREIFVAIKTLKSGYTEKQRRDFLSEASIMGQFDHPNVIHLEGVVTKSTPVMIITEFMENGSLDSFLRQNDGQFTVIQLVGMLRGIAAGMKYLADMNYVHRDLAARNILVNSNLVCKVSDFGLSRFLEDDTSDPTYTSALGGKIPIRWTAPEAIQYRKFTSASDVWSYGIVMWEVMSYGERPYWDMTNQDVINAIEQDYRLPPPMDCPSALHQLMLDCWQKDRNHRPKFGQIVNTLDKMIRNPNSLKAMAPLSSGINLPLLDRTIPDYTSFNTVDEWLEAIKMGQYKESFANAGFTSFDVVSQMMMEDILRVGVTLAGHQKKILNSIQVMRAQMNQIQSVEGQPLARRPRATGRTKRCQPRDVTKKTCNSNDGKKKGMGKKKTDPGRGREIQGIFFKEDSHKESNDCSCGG

[9] = target: T4, Mitogen-activated protein kinase 13 (Homo sapiens) (UniProt O15264); assay: Inhibition of human SAPK4 at 1 uM relative to control; values are per cent of control
T4 sequence (whole entry): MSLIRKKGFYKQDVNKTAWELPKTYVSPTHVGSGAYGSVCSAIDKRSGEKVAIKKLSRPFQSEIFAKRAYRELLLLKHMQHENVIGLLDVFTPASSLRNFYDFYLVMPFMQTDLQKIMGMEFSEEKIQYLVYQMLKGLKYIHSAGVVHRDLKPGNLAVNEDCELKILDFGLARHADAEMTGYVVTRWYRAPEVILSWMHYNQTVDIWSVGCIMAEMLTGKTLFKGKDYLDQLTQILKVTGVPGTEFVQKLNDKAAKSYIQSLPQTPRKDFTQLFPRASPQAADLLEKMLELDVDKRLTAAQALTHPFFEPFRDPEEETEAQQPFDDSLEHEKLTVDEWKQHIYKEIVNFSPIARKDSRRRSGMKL

[10] = target: Mitogen-activated protein kinase 11 (Homo sapiens) (UniProt Q15759); assay: Inhibition of human SAPK2b at 1 uM relative to control; values are per cent of control
Mitogen-activated protein kinase 11 (Homo sapiens), sequence (Q15759 whole entry): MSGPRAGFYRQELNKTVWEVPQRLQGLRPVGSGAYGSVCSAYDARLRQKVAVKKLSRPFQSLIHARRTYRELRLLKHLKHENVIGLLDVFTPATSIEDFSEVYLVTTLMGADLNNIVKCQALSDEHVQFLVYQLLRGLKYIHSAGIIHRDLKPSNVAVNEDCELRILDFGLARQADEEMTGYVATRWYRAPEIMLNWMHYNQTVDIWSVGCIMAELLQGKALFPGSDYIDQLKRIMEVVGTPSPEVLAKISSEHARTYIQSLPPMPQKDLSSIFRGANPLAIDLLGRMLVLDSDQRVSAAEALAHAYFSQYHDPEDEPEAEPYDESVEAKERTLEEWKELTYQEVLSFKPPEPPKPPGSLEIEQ

RAF proto-oncogene serine/threonine-protein kinase (Homo sapiens), sequence (P04049 whole entry): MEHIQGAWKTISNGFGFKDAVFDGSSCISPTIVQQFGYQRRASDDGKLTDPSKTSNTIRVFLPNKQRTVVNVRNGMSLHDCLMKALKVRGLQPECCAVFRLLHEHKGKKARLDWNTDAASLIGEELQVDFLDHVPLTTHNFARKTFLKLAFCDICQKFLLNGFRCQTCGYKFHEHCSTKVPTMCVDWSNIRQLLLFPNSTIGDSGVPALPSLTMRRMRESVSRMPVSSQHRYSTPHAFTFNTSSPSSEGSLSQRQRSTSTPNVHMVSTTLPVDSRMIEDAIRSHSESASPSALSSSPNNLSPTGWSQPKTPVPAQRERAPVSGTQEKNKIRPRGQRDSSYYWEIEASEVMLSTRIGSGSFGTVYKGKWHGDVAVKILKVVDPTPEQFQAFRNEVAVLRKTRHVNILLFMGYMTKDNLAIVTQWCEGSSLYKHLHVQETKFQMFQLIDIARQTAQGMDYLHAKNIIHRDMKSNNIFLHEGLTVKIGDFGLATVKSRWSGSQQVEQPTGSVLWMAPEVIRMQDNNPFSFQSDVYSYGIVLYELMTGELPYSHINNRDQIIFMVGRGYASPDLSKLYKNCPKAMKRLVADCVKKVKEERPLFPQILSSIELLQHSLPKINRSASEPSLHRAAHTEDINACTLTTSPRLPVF
Tyrosine-protein kinase receptor UFO (Homo sapiens), sequence (P30530 whole entry): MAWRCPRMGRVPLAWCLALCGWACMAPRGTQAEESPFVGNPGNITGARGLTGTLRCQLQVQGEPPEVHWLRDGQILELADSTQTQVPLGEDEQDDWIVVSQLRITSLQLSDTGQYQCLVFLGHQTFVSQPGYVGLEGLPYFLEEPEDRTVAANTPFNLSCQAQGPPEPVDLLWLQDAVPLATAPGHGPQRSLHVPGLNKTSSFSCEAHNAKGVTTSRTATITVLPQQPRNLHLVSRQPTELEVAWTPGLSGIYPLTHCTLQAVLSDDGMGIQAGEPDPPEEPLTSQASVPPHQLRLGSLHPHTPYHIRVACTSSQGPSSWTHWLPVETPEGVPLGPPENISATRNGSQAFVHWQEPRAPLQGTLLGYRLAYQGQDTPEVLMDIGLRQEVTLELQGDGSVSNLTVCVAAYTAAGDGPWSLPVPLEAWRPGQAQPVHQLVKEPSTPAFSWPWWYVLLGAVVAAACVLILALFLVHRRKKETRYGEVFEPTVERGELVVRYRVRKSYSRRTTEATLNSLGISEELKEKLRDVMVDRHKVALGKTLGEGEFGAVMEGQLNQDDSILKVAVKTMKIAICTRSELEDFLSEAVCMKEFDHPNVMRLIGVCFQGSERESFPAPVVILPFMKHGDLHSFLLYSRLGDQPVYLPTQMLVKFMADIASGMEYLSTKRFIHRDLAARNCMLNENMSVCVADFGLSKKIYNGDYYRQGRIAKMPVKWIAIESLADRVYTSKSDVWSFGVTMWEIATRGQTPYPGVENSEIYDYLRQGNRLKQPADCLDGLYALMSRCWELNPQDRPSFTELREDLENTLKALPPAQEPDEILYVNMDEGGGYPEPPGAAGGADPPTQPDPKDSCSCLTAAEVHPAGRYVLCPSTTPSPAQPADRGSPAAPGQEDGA
Glycogen synthase kinase-3 beta, sequence (P49841 whole entry, looked up): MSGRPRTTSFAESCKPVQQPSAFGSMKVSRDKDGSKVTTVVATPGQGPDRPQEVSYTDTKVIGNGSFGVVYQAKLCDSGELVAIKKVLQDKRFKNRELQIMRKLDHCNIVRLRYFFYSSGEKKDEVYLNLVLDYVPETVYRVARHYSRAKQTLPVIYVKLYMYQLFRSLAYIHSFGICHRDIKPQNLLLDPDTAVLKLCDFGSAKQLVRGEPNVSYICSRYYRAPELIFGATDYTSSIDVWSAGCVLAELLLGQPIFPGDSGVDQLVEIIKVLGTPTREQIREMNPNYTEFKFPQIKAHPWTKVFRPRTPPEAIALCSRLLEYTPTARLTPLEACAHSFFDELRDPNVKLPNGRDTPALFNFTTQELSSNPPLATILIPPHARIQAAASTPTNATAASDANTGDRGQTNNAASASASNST
Tyrosine-protein kinase Lck (Homo sapiens), sequence (P06239 2-509 limits assumed): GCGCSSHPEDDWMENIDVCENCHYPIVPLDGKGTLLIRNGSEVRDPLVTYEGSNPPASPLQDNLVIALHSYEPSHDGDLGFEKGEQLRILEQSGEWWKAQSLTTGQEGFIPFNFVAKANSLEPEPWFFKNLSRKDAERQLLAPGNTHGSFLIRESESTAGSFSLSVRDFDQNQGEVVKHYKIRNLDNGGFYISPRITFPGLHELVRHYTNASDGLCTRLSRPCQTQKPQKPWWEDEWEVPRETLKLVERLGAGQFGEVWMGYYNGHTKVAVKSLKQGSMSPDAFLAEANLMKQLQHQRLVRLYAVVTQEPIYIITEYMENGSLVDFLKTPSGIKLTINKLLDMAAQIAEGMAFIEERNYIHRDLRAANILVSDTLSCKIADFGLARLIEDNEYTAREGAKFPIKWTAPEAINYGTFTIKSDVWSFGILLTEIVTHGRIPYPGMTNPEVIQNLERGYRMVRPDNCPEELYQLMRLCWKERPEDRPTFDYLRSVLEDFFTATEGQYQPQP
Ribosomal protein S6 kinase alpha-5, sequence (O75582 whole entry, looked up): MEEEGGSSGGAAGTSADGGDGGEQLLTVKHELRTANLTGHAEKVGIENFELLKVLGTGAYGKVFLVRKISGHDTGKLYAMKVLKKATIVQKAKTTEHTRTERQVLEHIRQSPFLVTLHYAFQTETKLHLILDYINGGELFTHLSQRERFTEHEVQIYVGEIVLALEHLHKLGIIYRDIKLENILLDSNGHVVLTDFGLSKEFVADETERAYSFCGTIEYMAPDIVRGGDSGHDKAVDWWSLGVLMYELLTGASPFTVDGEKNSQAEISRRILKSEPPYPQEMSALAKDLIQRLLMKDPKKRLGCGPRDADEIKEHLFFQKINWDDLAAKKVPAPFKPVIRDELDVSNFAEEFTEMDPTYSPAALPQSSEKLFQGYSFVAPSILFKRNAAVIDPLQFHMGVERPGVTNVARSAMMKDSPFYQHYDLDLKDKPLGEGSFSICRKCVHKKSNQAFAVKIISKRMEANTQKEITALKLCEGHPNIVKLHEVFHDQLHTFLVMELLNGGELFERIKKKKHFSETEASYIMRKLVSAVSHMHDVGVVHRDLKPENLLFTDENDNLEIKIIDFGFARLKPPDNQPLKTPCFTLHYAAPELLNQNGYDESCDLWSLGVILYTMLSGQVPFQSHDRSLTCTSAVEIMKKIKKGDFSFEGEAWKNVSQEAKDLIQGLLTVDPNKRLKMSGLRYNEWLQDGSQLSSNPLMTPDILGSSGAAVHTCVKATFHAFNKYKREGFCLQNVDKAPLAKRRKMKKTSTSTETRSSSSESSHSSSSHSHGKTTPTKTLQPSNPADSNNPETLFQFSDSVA

residual activity [1] [%] | residual activity [2] [%] | residual activity [3] [%] | residual activity (Homo sapiens) [%] | residual activity [4] [%] | residual activity [5] [%] | residual activity [6] [%] | residual activity [7] [%] | residual activity [8] [%] | residual activity [9] [%] | residual activity [10] [%] | SMILES
100 | 85 | 7 | 106 | 90 | 85 | 104 | 99 | 114 | 102 | 99 | O=C1NC(=O)C2=C1c1cn(c3ccccc13)CCCc1ccc(c(N3CCCC3)n1)CCCn1cc2c2ccccc21
104 | 87 | 1 | 89 | 100 | 86 | 58 | 102 | 114 | 104 | 119 | CN(C)c1cc2cc(n1)CCCn1cc(c3ccccc31)C1=C(C(=O)NC1=O)c1cn(c3ccccc13)CCC2
106 | 92 | 3 | 86 | 99 | 91 | 38 | 105 | 110 | 102 | 114 | O=C1NC(=O)C2=C1c1cn(c3ccccc13)CCCc1cc(nc(N3CCCC3)c1)CCCn1cc2c2ccccc21
97 | 103 | 1 | 59 | 96 | 102 | 36 | 104 | 125 | 101 | 104 | CN(C)c1nc2ccc1CCCn1cc(c3ccccc31)C1=C(C(=O)NC1=O)c1cn(c3ccccc13)CC2
